These results are taken from patent publication US20170014477A1, “FREE RAPTOR REDUCES AGING- AND OBESITY-INDUCED FATTY LIVER” (The Trustees of Columbia University in the City of New York, priority 2015, published 2017).

One assay has as its system free Raptor. Put plainly: DSS crosslinking assay for free Raptor in hepatocytes and hepatoma cells. Format: cell-based, mouse. On the procedure: Liver was lysed in 1% Triton X-100 lysis buffer (Kim et al., 2002) with or without 2.5 mg/ml DSP or DSS, and incubated for 2 h on ice. Crosslinking was quenched with 1 M Tris-HCl (pH 7.5) for 30 min on ice. For in vitro crosslinking assays, DSP or DSS were added to a final concentration of 1 mg/ml culture medium, and quenched by Tris-HCl as above. Equal protein (BCA assay, Thermo) was then subjected to Western blot, with or without IP.

Assay [1] deals with PHLPP2. The assay is described as follows: PHLPP2 phosphorylation (Phos-tag mobility shift; IP and phospho-PKA substrate immunoblot) in hepatocytes. In kind it is cell-based, mouse.
Description: To investigate the effect of PKA on PHLPP2 phosphorylation in primary hepatocytes, either WT or S1119/1210A mutant of PHLPP2 was immunoprecipitated from cell extracts treated with glucagon or forskolin, and then subjected to immunoblot analysis with an antibody specific for phosphorylated PKA substrate proteins.
Assay [2] relates to PHLPP2. The assay is described as follows: Western blot of PHLPP2 levels in primary hepatocytes / Hepa1c1c7 cells. The note with it: short- or long-term treatment, Rapamycin (20 nM), Torin1 (250 nM). In kind it is cell-based, mouse. From the text: The GFP, Raptor and PHLPP1/2 adenoviruses have been described (Miyamoto et al., 2010; Pajvani et al., 2013). The HA-Flag-PHLPP2 adenovirus was constructed by inserting a Flag sequence into HA-PHLPP2 vector (Addgene #22403, courtesy of Alexandra Newton) and adenoviruses encoding HA-Flag-PHLPP2 generated by Welgen, Inc. (Worcester, Mass.). Mouse shPhlpp1 or 2 target sequences were selected among three candidate sequences, respectively and adenoviruses encoding shPhlpp1 or 2 generated by Welgen, Inc. For in vivo studies, we injected […] or 2.5×10^8 purified viral particles per g body weight; we performed metabolic analysis on days 3-5 and euthanized the mice at day 8 or 10 after injection. Infection with adenovirus in primary hepatocytes or Hepa1c1c7 cells was performed at 2.5, 5, or 10 multiplicity of infection (MOI).
We isolated and cultured primary mouse hepatocytes as previously described (Kim et al., 2012). For inhibitor experiments, we treated hepatocytes with 20 nM rapamycin (Cell Signaling), 250 nM Torin1, or vehicle for either 1 h or 24 h.
Tissues and cells were lysed in 0.3% CHAPS lysis buffer (Kim et al., 2002) unless otherwise stated, and whole cell lysates obtained by centrifugation. […]

Assay [3] addresses T1, PH domain leucine-rich repeat protein phosphatase 2 (PHLPP2), endogenous (mouse, UniProt Q8BXA7 1-1320).
T1 construct: Endogenous protein, immunoprecipitated with anti-PHLPP2 or co-precipitated with anti-Akt; also called endogenous PHLPP2
T1 sequence (looked up): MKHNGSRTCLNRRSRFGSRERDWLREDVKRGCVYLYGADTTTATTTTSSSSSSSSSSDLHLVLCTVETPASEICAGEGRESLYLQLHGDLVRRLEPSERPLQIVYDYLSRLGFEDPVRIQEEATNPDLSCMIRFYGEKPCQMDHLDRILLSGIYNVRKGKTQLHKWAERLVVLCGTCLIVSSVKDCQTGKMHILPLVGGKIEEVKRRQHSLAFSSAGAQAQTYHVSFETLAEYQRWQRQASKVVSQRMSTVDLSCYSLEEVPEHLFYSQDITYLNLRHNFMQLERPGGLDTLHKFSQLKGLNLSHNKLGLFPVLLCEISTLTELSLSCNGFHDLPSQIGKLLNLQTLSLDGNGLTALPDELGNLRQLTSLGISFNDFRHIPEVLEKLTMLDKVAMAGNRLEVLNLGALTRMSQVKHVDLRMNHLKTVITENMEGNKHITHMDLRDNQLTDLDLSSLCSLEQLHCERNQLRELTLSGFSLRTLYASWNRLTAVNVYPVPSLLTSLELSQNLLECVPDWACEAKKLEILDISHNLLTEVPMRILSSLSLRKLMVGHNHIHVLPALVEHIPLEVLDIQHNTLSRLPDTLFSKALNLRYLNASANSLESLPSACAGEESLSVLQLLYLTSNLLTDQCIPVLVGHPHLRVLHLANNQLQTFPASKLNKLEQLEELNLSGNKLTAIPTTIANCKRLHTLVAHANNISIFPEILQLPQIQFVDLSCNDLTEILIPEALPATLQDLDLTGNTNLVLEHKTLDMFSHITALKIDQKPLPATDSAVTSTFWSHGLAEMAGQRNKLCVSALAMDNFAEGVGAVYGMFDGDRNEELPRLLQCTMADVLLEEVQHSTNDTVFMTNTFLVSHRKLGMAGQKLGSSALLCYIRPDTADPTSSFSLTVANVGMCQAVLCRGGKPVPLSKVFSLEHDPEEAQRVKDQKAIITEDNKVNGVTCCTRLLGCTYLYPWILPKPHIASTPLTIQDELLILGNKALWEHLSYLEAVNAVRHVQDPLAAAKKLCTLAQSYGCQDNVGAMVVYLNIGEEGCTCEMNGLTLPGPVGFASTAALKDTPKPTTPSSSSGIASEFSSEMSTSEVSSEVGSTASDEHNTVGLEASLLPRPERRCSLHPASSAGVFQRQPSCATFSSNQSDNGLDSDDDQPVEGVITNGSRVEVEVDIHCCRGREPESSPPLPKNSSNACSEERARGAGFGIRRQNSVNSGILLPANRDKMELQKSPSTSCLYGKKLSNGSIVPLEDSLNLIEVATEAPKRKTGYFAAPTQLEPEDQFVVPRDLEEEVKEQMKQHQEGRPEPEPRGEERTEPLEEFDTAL
The assay is described as follows: anti-PHLPP2 IP from primary hepatocytes and Hepa1c1c7 cells with or without MG-132, Western blot (FIG. 19i, FIG. 28j). In general terms: Immunoblotting shows a protein as a band on a membrane.

Regarding insulin, the “free Raptor levels” value is on record as “ineffectual” with free Raptor (brief exposure) and “reduced” in the assay with free Raptor (prolonged high-dose treatment to induce insulin resistance, primary hepatocytes or Hepa1c1c7 cells).

On to `O=S(=O)(NCCNC/C=C/c1ccc(Br)cc1)c1cccc2cnccc12` [H89], for which the “forskolin-mediated PHLPP2 phosphorylation” value in the assay on PHLPP2 [1] (pretreatment with PKA inhibitor) is recorded as “reduced”. With glucagon, in the assay on PHLPP2 [1] (primary hepatocytes, IP, phosphorylated PKA substrate antibody, not S1119A/S1210A mutant), the “PKA-mediated phosphorylation of WT PHLPP2” value was “robustly increased”. In the case of `CCC(=O)N1CCN(c2ccc(-n3c(=O)ccc4cnc5ccc(-c6cnc7ccccc7c6)cc5c43)cc2C(F)(F)F)CC1` [Torin1], the “decrease of basal or Raptor-increased PHLPP2 levels” value in the assay on PHLPP2 [2] was “neither”.

B1: β-TrCP (beta-transducin repeat-containing protein) (other, mouse, UniProt Q3ULA2 1-605, looked up)
chain: MDPAEAVLQEKALKFMCSMPRSLWLGCSSLADSMPSLRCLYNPGTGALTAFQNSSEREDCNNGEPPRKIIPEKNSLRQTYNSCARLCINQETVCLTSTAMKTENCVAKAKLANGTSSMIVPKQRKLSASYEKEKELCVKYFEQWSESDQVEFVEHLISQMCHYQHGHINSYLKPMLQRDFITALPARGLDHIAENILSYLDAKSLCAAELVCKEWYRVTSDGMLWKKLIERMVRTDSLWRGLAERRGWGQYLFKNKPPDENAPPNSFYRALYPKIIQDIETIESNWRCGRHSLQRIHCRSETSKGVYCLQYDDQKIVSGLRDNTIKIWDKSTLECKRILTGHTGSVLCLQYDERVIITGSSDSTVRVWDVNAGEMLNTLIHHCEAVLHLRFNNGMMVTCSKDRSIAVWDMASPTDITLRRVLVGHRAAVNVVDFDDKYIVSASGDRTIKVWNTSTCEFVRTLNGHKRGIACLQYRDRLVVSGSSDNTIRLWDIECGACLRVLEGHEELVRCIRFDNKRIVSGAYDGKIKVWDLMAALDPRAPAGTLCLRTLVEHSGRVFRLQFDEFQIVSSSHDDTILIWDFLNDPAAHAEPPRSPSRTYTYISR
notes: E3 ligase substrate recognition subunit of the SCF complex; endogenous protein in mouse cells
With B1, in assay [3], the binding result is reported as “binds”.
